In series [1] the target is T1, p60c-src (Homo sapiens, UniProt P12931).
T1 construct: purchased Upstate Biotechnologies
Put plainly: Src kinase test procedure (ELISA). Format: biochemical. As to conditions: cdc2 substrate peptide, (a) = average of two runs. On the procedure:
Src Kinase Test Procedure
Inhibitors of p60^c-src (partially purified preparation purchased from Upstate Biotechnologies) tyrosine kinase activity are analyzed in an Elisa format. The Boehringer Mannheim Tyrosine Kinase Assay Kit (Catalog number 1-534505) with a cdc2 substrate peptide containing Tyr15 is used for the assay. HRP-conjugated anti-phosphotyrosine is used to detect phosphorylated peptide via a color reaction. Conditions recommended by the manufacturer are employed.
Reaction conditions: Five microliter aliquots of each compound prepared fresh at the time of the assay are added as a solution in 10 mM HEPES pH 7.5, 10% DMSO to the reaction well. Thirty-five microliters of reaction mix containing Src, buffer and peptide/bovine serum albumin mix are added to the compound wells and incubated at 30° C. for 10 minutes (reaction buffer: 50 mM Tris HCl pH 7.5, 10 mM MgCl2, 0.1 mM EGTA, 0.5 mM Na3VO4). The reaction is started by addition of 10 microliters of ATP, incubated at 30° C. for 1 hour, and stopped by addition of 20 microliters of 0.5M EDTA. The reaction mixture with the phosphorylated peptide is then transferred to a streptavidin-coated microtiter plate (provided in the kit) and allowed to bind for 20 minutes. Unbound peptide and reaction mixture is decanted and the plate is washed with PBS six times. Horseradish peroxidase-conjugated phosphotyrosine antibody supplied in the kit is incubated with the plate for one hour, then decanted. The plate is again ished with PBS six times. Substrate (provided in the kit) is added and absorbance at 405 nm is measured.
Activity is determined as % inhibition as calculated by the formula: (1−Abs/Abs(max))×100=% inhibition. Where multiple concentrations of the test agent are used, an IC50 (concentration which gives 50% inhibition) could be determined.

Series [2] relates to LoVo. Put plainly: Cell based screen for inhibitors of Raf and/or Mek kinase (SRB), LoVo. Details: species or system human. As to conditions: Homo sapiens, 96 h, LoVo cells, four days incubation, (a)/(b)/(c) = average of two/three/five runs. The procedure: (§1) Cell Based Screen for Inhibitors of Raf and/or Mek Kinase. Materials
Cell Lines: Human adenocarcinoma cell line LoVo, known to be growth inhibited by low nM concentrations of a reference standard inhibitor of Ras and human adenocarcinoma cell line CaCo-2, known to be growth resistant to the same reference compound.
Cell Media: RPMI 1640 with 10% Fetal Bovine Serum supplemented with L-glutamine and Penicillin/Streptomycin.
(§2) Cells are plated at 2000 cells per well for cell line LoVo and 1500 cells for cell line CaCo-2 in 96 well plates. Cells are plated in media (200 μl) and allowed to adhere overnight at 37° C. At 24 hours post plating, compounds are added directly at a volume of 0.5 μl. For the qualitative screen (compounds screened at 25 μM) compound is added directly to cells. For the quantitative screen, compound is first diluted in DMSO to generate concentrations of compound or reference standard of: 1, 5, 10 and 25 μM. It is advisable to make the dilutions in an identical 96 well plate so that compounds can be added using a multichannel micropipettor set at 0.5 μl. The cells are then incubated for four days after which the media is removed using a 12 well manifold by first tipping the plate forward at a 45 degree angle and then inserting the manifold in an upright orientation to prevent the tips of the manifold from disturbing cells at the bottom of the plate. 200 μl of normal saline is then added to each well using an 8 well multichannel pipettor, followed by the careful addition of 50 μl of 50% TCA. The plates are then incubated for 2 hours at 4° C., after which the supernatant is removed using the same technique as above and the plated cells are washed twice with 200 μl water. The plates are then air dried and 50 μl of SRB stock solution is carefully added so that the entire bottom of each well is covered. This again can be done using an 8 well multichannel pipettor. The SRB is incubated with fixed cells for 15 minutes at room temperature after which the SRB is removed with the manifold as described above and the plates washed twice with 350 μl of 1% acetic acid per well each time. The plates are then air dried after which the bound SRB is released from protein by the addition of 200 μl of Tris base. Resolubilizing the SRB is aided by placing the plates on a rotator for 15-30 minutes. The absorbance of each well is determined at 550 or 562 nm using a microtiter plate reader.
(§3) Each compound or dilution thereof is performed in triplicate. Outliers are identified by visual inspection of the data. Each plate should have a “0” control (vehicle only).
(§4) Quantitative Assay: A standard curve is constructed by plotting the concentration of compound against the average absorbance calculated at that concentration. A curve is plotted and the concentration at which the curve passes through the 50% the absorbance mark seen in the “0” control well is the IC50 calculated for that compound. Multiple entries for a given compound indicate that it is tested multiple times.

For series [3], the system named is BxPC3. The series can be described thus: Cell based screen for inhibitors of Raf and/or Mek kinase (SRB), BxPC3. As to conditions: Homo sapiens, BXPC-3, BxPC3 cells, (a)/(b) = average of two/three runs. On the procedure: [The procedure below names another cell line; the source lists this cell line under the same test.] as §1, §2, §3, §4
The target of series [4] is T2, Raf and/or Mek kinase (human c-Raf, GST-MEK1) (Homo sapiens, UniProt P04049+Q02750).
T2 construct: Sf9 insect cell lysate containing full length 6his-tagged recombinant human c-Raf; 6His; host or cells: Sf9 insect cells (c-Raf, used as lysate); E. coli (MEK1-GST, GST-MAPK)
The series can be described thus: Raf/Mek kinase cascade assay. The class given is biochemical. As to conditions: c-Raf dependent activation of GST-MEK and GST-MAPK, phospho-MAPK ELISA; (a)/(b)/(c) = average of two/three/four runs. The procedure: Raf/Mek Kinase Cascade Assay Procedure
(Specific Activity: ˜200 U/ml). Human Non-active Mek-1-GST and human GST-MAP kinase (recombinant proteins produced in E. coli).
Stock Solutions Raf/Mek Cascade Assay:
• 1. Assay Dilution Buffer (ADB): 20 mM MOPS, pH 7.2, 25 mM β-glycerol phosphate, 5 mM EGTA, 1 mM sodium orthovanadate, 1 mM dithiothreitol; • 2. Magnesium/ATP Cocktail: 500 μM cold ATP and 75 mM magnesium chloride in ADB; • 3. Active Kinase: Human Active c-Raf: Use at 0.4 U per assay point; • 4. Non-active GST-MEK1: Use at 0.1 μg per assay point; and • 5. Non-active GST-p42 MAP Kinase: Use at 1.0 μg per assay point. Stock Solutions ELISA: • 1. TBST-Tris (50 mM, pH 7.5), NaCl (150 mM), Tween-20 (0.05%); • 2. Superblock (Pierce); • 3. Anti-GST Ab (Pharmacia); • 4. Anti-Phospho MAPK (Sigma); and • 5. Anti-Mouse Ab/Europium conjugate (Wallac). Assay Procedure: First Stage: c-Raf Dependent Activation of GST-MEK and GST-MAPK • 1. Add […] of ADB per assay (i.e. per well of a 96 well plate); • 2. Add 10 ml of 0.5 mM cold ATP and 75 mM magnesium chloride in ADB; • 3. Add 2 ml of c-Raf (0.4 U/assay), in conjunction with 1.6 ml non-active MEK1 (0.4 […]/assay); • 4. Add 4 ml of non-active GST-p42 MAP Kinase (1.0 mg/assay); • 5. Incubate for 60 minutes at 30° C. in a shaking incubator; • 6. Transfer this mixture to an anti-GST Ab coated 96 well plate (Nunc Immunosorb plates coated o/n with a-GST, then blocked with Pierce Superblock); • 7. Incubate for 60 minutes at 30° C. in a shaking incubator; • 8. Wash 3× with TBST, add Anti-Phospho MAPK (Sigma) (1:3000); • 9. Incubate for 60 minutes at 30° C. in a shaking incubator; • 10. Wash 3× with TBST, add Anti-Mouse Ab/Europium conjugate (Wallac) (1:500); • 11. Incubate for 60 minutes at 30° C. in a shaking incubator; • 12. Wash 3× with TBST, Read plates in Wallac Victor model Plate Reader; and • 13. Collect data analyze in Excel for single point and IC50 determinations.
Single point assay—% inhibition at […] (% Inhibition=1−cpd·treated sample/untreated control). IC50 determinations—done on compounds from single point assays with >80% inhibition. Typically, the Raf/Mek assay is run at compound concentrations from 10 μM to 1 nM in half log dilutions. (% inhibition is determined for each compound concentration). The results obtained measure Raf and/or Mek kinase inhibition, and for representative compounds of this invention are listed in Table 1.

T2 sequence (P04049 whole entry): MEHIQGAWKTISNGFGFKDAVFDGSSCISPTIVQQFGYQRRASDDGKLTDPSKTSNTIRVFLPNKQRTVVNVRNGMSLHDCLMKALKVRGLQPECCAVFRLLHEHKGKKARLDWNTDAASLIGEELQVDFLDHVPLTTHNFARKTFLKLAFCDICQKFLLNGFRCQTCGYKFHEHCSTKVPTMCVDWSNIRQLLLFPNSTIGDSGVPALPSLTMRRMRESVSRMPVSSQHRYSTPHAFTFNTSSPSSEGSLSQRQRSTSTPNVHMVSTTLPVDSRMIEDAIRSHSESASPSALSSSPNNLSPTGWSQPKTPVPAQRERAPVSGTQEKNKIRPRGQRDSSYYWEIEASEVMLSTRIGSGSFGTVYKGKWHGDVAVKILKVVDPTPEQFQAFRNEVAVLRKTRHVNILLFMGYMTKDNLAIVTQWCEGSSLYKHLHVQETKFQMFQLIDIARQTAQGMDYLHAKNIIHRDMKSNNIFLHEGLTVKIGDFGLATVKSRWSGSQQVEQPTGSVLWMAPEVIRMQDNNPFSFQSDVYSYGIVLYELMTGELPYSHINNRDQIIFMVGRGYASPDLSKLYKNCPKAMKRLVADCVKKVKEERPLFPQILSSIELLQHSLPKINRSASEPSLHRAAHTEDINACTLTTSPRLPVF
T2 sequence (Q02750 whole entry): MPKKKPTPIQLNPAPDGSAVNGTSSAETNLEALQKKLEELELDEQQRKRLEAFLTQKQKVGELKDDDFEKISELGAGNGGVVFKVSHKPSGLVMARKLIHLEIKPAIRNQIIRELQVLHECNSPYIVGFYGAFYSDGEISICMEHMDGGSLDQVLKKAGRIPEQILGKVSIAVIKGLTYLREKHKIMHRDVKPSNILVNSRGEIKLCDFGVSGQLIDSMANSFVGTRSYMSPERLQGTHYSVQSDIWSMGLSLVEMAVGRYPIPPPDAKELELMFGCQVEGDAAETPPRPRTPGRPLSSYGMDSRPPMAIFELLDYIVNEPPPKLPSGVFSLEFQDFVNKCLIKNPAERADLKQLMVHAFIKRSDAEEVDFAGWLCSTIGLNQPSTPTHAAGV
T1 sequence (P12931 whole entry): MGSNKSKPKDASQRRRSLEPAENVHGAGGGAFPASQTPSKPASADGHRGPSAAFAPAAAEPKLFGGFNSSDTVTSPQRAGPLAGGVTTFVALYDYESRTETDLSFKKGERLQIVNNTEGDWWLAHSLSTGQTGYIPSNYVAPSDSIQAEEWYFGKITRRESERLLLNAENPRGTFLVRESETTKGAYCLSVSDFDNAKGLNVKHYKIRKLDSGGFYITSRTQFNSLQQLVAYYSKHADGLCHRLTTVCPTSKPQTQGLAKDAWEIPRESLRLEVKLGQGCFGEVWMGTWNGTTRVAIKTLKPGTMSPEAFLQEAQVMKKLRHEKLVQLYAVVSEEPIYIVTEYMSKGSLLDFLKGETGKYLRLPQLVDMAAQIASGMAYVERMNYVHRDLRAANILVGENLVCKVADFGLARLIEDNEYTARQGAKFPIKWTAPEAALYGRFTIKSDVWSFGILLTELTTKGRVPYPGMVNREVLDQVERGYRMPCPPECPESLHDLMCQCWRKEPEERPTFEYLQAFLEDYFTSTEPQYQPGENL

The compound `COc1cc2c(Nc3ccc(Sc4nccn4C)c(Cl)c3)c(C#N)cnc2cc1N1CCC(N2CCCC2)CC1` [Example 11, 4-({3-chloro-4-[(1-methyl-1H-imidazole-2-yl)thio]phenyl}amino)-6-methoxy-7-(4-pyrrolidin-1-ylpiperidin-1-yl)quinoline-3-carbonitrile] yielded a melting point of 225 to 229 °C. For the same compound, half-maximal inhibition in series [1] (IC50) required 281 nM. This compound displayed an IC50 in series [2] of 29 nM. In series [3], this compound came in with an IC50 of 42 nM. The IC50 in series [4] was 114 nM.
The compound `CC(=O)N(C(C)=O)c1cc2c(Nc3ccc(Sc4nccn4C)c(Cl)c3)c(C#N)cnc2cc1N1CCC(N2CCCC2)CC1` [Example 28, N-Acetyl-N-[4-[3-chloro-4-(1-methyl-1H-imidazole-2-ylsulfanyl)-phenylamino]-3-cyano-7-(4-pyrrolidin-1-yl-piperidin-1-yl)quinolin-6-yl]acetamide] showed a melting point of 245 to 247 °C. In series [2], this compound gave an IC50 of 14 nM. The compound also displayed an IC50 in series [3] of 8 nM. In addition, in series [4], the IC50 came to 2390 nM.
For `COc1cc2c(Nc3ccc(Sc4nccn4C)c(Cl)c3)c(C#N)cnc2cc1N1CCC(N2CCN(C)CC2)CC1` [Example 20, 4-({3-Chloro-4-[(1-methyl-1H-imidazole-2-yl)thio]phenyl}amino)-6-methoxy-7-[4-(4-methylpiperazin-1-yl)piperidin-1-yl]quinoline-3-carbonitrile], in that order: 235 to 237 °C, 22 nM, 38 nM and 293 nM.
For `CNc1cc2c(Nc3ccc(Sc4nccn4C)c(Cl)c3)c(C#N)cnc2cc1N1CCC(N2CCCC2)CC1` [Example 30, 4-({3-Chloro-4-[(1-methyl-1H-imidazole-2-yl)thio]phenyl}amino)-6-(methylamino)-7-(4-pyrrolidin-1-ylpiperidin-1-yl)quinoline-3-carbonitrile], in that order: 242 to 250 °C, 14 nM, 30 nM and 220 nM.
`COc1cc2c(Nc3ccc(Sc4ccccn4)c(Cl)c3)c(C#N)cnc2cc1N1CCC(N2CCCC2)CC1` [Example 14, 4-[3-Chloro-4-(pyridin-2-ylsulfanyl)-phenylamino]-6-methoxy-7-(4-pyrrolidin-1-yl-piperidin-1-yl)-quinoline-3-carbonitrile] gave a melting point of 203 to 205 °C. The same compound had an IC50 in series [2] of 370 nM. Also, in series [3], the IC50 turned out to be 300 nM. In series [4], half-maximal inhibition (IC50) required 795 nM.
For `CC(=O)Nc1cc2c(Nc3ccc(Sc4nccn4C)c(Cl)c3)c(C#N)cnc2cc1N1CCC(N2CCCC2)CC1` [Example 29, N-[4-({3-Chloro-4-[(1-methyl-1H-imidazole-2-yl)thio]phenyl}amino)-3-cyano-7-(4-pyrrolidin-1-ylpiperidin-1-yl)quinolin-6-yl]acetamide] the same measures were 243 to 255 °C, 4 nM, 8 nM and 1640 nM.
For `COc1cc2c(Nc3ccc(Oc4cccnc4)cc3)c(C#N)cnc2cc1N1CCC(N2CCCC2)CC1` [Example 15, 6-Methoxy-4-[4-(pyridin-3-yloxy)-phenylamino]-7-(4-pyrrolidin-1-yl-piperidin-1-yl)-quinoline-3-carbonitrile] the same measures were 194 to 196 °C, 261 nM, 360 nM and 1720 nM.
`Cn1ccnc1Sc1ccc(Nc2c(C#N)cnc3cc(N4CCC(N5CCCC5)CC4)ccc23)cc1Cl` [Example 16]: the melting point lay within 125 to 130 °C. For the same compound, inhibition in series [2] was half-maximal at 9 nM (IC50). The compound further yielded an IC50 in series [3] of 30 nM. The compound also displayed an IC50 in series [4] of 35 nM.
